The values that follow come from article PMC3741113, “De-Novo Design of Antimicrobial Peptides for Plant Protection” (PLoS ONE, 2013).

Ends that are not written are not given here.

For assay [1], the system named is Clavibacter michiganensis ssp. michiganensis. The following applies: Table 4, incubation period 2d; LB-medium, 27°C.
The subject of assay [2] is Pectobacterium carotovorum ssp. carotovorum. The following applies: Table 4, incubation period 1d; LB-medium, 27°C.
The test system of assay [3] is Xanthomonas vesicatoria. The following applies: Table 4, incubation period 2d; LB-medium, 27°C.
Assay [4] has as its system Pseudomonas syringae pv. tomato. The following applies: Table 4, incubation period 1d; LB-medium, 27°C.
Assay [5] has as its system Pseudomonas syringae pv. syringae. The following applies: Table 4, incubation period 1d; LB-medium, 27°C.
The subject of assay [6] is Pseudomonas corrugata. The following applies: Table 4, incubation period 2d; LB-medium, 27°C.

Broadly, the MIC is the least concentration at which growth counts as inhibited. Low values mean greater potency, high ones weaker potency. Take KKKKIIKRLI-NH2 [SP1-17]: the minimal inhibitory concentration (MIC) in assay [1] is greater than 10 µg/mL; in assay [2], greater than 10 µg/mL; in assay [3] it was greater than 10 µg/mL; in assay [4], 1.0 µg/mL; in assay [5] it was less than 0.1 µg/mL; in assay [6] it was 5.0 µg/mL.
As for KKKKKKIIKKII-NH2 [SP1-22], the MIC in assay [1] was greater than 10 µg/mL; in assay [2], greater than 10 µg/mL; in assay [3], greater than 10 µg/mL; in assay [4], 1.0 µg/mL; in assay [5] it was 2.5 µg/mL; in assay [6], greater than 10 µg/mL.
In the case of KRKKLLKRLI-NH2 [SP1-16], the MIC in assay [1] was greater than 10 µg/mL; in assay [2], greater than 10 µg/mL; in assay [3], 10 µg/mL; in assay [4], 1.0 µg/mL; in assay [5], 0.1 µg/mL; in assay [6], 0.5 µg/mL.
Turning to KRKKLLKRLL-NH2 [SP1-15], the MIC in assay [1] was 5.0 µg/mL; in assay [2] it was greater than 10 µg/mL; in assay [3], 5.0 µg/mL; in assay [4], 1.0 µg/mL; in assay [5], 0.1 µg/mL; in assay [6] it was less than 0.1 µg/mL.
As to KRRILIRILKLIIKLILKKR-NH2 [SP13-5], the MIC in assay [1] was 2.5 µg/mL; in assay [2], greater than 10 µg/mL; in assay [3] it was 1.0 µg/mL; in assay [4] it was 2.5 µg/mL; in assay [5] it was greater than 10 µg/mL; in assay [6] it was 10 µg/mL.
As to KRRKAIKILKLIAKAIRKKR-NH2 [SP13-9], the MIC in assay [1] is 0.25 µg/mL; in assay [2], greater than 10 µg/mL; in assay [3], 0.1 µg/mL; in assay [4], greater than 10 µg/mL; in assay [5] it was greater than 10 µg/mL; in assay [6], 0.25 µg/mL.
In the case of KRRKAIKILKLIAKLIRKKR-NH2 [SP13-8], the MIC in assay [1] was 0.1 µg/mL; in assay [2], greater than 10 µg/mL; in assay [3] it was 0.1 µg/mL; in assay [4], 10 µg/mL; in assay [5], greater than 10 µg/mL; in assay [6], 0.25 µg/mL.
For the substance KRRKLAFRAFRFALKAVLKK-NH2 [SP13-13], the MIC was 0.5 µg/mL in assay [1]; greater than 10 µg/mL in assay [2]; 0.25 µg/mL in assay [3]; 2.5 µg/mL in assay [4]; 0.5 µg/mL in assay [5]; 0.25 µg/mL in assay [6].
For the substance KRRKLAFRLFRLFLKLVLKK-NH2 [SP13-14], the MIC in assay [1] is 0.5 µg/mL; in assay [2] it was greater than 10 µg/mL; in assay [3], 0.25 µg/mL; in assay [4] it was 2.5 µg/mL; in assay [5], 5.0 µg/mL; in assay [6], 2.5 µg/mL.
As for KRRKLIKILKLIAKLIRKKR-NH2 [SP13-7], the MIC in assay [1] was 0.25 µg/mL; in assay [2], greater than 10 µg/mL; in assay [3], 0.1 µg/mL; in assay [4], 10 µg/mL; in assay [5] it was greater than 10 µg/mL; in assay [6], 0.5 µg/mL.
As to KRRKLIKILKLIIKLIRKKR-NH2 [SP13-6], the MIC in assay [1] is 0.1 µg/mL; in assay [2], greater than 10 µg/mL; in assay [3], 0.1 µg/mL; in assay [4], 2.5 µg/mL; in assay [5], 1.0 µg/mL; in assay [6] it was 2.5 µg/mL.
KRRLALFRAFRLALKSVLKK-NH2 [SP13-10]: the MIC in assay [1] is 0.1 µg/mL; in assay [2] it was greater than 10 µg/mL; in assay [3] it was 0.1 µg/mL; in assay [4], 1.0 µg/mL; in assay [5] it was greater than 10 µg/mL; in assay [6], 0.25 µg/mL.
Regarding KRRLALFRLFRLALKLVLKK-NH2 [SP13-11], the MIC in assay [1] is 2.5 µg/mL; in assay [2], greater than 10 µg/mL; in assay [3] it was 2.5 µg/mL; in assay [4] it was 2.5 µg/mL; in assay [5], greater than 10 µg/mL; in assay [6] it was greater than 10 µg/mL.
With KRRLFLFRLFRLFLRLFLKK-NH2 [SP13-12], the MIC was 2.5 µg/mL in assay [1]; greater than 10 µg/mL in assay [2]; 2.5 µg/mL in assay [3]; 5.0 µg/mL in assay [4]; greater than 10 µg/mL in assay [5]; 10 µg/mL in assay [6].
Take KRRLIARILRLAIRALVKKR-NH2 [SP13-1]: the MIC is 0.5 µg/mL in assay [1]; greater than 10 µg/mL in assay [2]; 0.5 µg/mL in assay [3]; 1.0 µg/mL in assay [4]; 1.0 µg/mL in assay [5]; 2.5 µg/mL in assay [6].
Take KRRLIFRILKLFFRFLVKKR-NH2 [SP13-4]: the MIC in assay [1] is 1.0 µg/mL; in assay [2], greater than 10 µg/mL; in assay [3], 2.5 µg/mL; in assay [4] it was greater than 10 µg/mL; in assay [5] it was 10 µg/mL; in assay [6] it was 5.0 µg/mL.
In the case of KRRLILRILRLAIRALVKKR-NH2 [SP13-2], the MIC is 0.25 µg/mL in assay [1]; greater than 10 µg/mL in assay [2]; 0.25 µg/mL in assay [3]; 10 µg/mL in assay [4]; 5.0 µg/mL in assay [5]; 5.0 µg/mL in assay [6].
For the substance KRRLILRILRLAIRILVKKR-NH2 [SP13-3], the MIC in assay [1] was 2.5 µg/mL; in assay [2] it was greater than 10 µg/mL; in assay [3] it was 2.5 µg/mL; in assay [4] it was 10 µg/mL; in assay [5] it was greater than 10 µg/mL; in assay [6] it was greater than 10 µg/mL.
Regarding LRFAKKALKKLF-NH2 [SP10-3], the minimum inhibitory concentration (MIC) was 2.5 µg/mL in assay [1]; greater than 10 µg/mL in assay [2]; 2.5 µg/mL in assay [3]; 0.25 µg/mL in assay [4]; 0.25 µg/mL in assay [5]; 1.0 µg/mL in assay [6].
Consider LRFARRALRRLF-NH2 [SP10-9], for which the MIC in assay [1] came to 1.0 µg/mL; in assay [2] it was 2.5 µg/mL; in assay [3] it was 1.0 µg/mL; in assay [4] it was 0.25 µg/mL; in assay [5], 0.25 µg/mL; in assay [6], 0.5 µg/mL.
As for LRFIKKILKKLI-NH2 [SP10-4], the minimal inhibitory concentration (MIC) is 0.25 µg/mL in assay [1]; 2.5 µg/mL in assay [2]; 0.1 µg/mL in assay [3]; 1.0 µg/mL in assay [4]; 0.25 µg/mL in assay [5]; 2.5 µg/mL in assay [6].
In the case of LRFLKKILKKLF-NH2 [SP10-1], the MIC in assay [1] worked out at 1.0 µg/mL; in assay [2], 2.5 µg/mL; in assay [3] it was 2.5 µg/mL; in assay [4], 1.0 µg/mL; in assay [5] it was 2.5 µg/mL; in assay [6] it was 2.5 µg/mL.
Take LRFLRRILRRLL-NH2 [SP10-8]: the MIC is 0.5 µg/mL in assay [1]; 2.5 µg/mL in assay [2]; 0.5 µg/mL in assay [3]; 1.0 µg/mL in assay [4]; 0.5 µg/mL in assay [5]; 0.5 µg/mL in assay [6].
Regarding LRIIRRILRRLI-NH2 [SP10-6], the MIC in assay [1] worked out at 2.5 µg/mL; in assay [2], 2.5 µg/mL; in assay [3] it was 1.0 µg/mL; in assay [4] it was 1.0 µg/mL; in assay [5] it was 2.5 µg/mL; in assay [6] it was 2.5 µg/mL.
As to LRILRRLLRRLF-NH2 [SP10-7], the MIC in assay [1] was 5.0 µg/mL; in assay [2], greater than 10 µg/mL; in assay [3] it was 5.0 µg/mL; in assay [4], 1.0 µg/mL; in assay [5], greater than 10 µg/mL; in assay [6], 2.5 µg/mL.
On to LRKAKKIAKKLF-NH2 [SP10-11], for which the MIC is 5.0 µg/mL in assay [1]; greater than 10 µg/mL in assay [2]; 0.5 µg/mL in assay [3]; 0.5 µg/mL in assay [4]; 0.1 µg/mL in assay [5]; 0.5 µg/mL in assay [6].
As for RKKKAKIIKKII-NH2 [SP1-10], the MIC in assay [1] is greater than 10 µg/mL; in assay [2], greater than 10 µg/mL; in assay [3], greater than 10 µg/mL; in assay [4], greater than 10 µg/mL; in assay [5], 1.0 µg/mL; in assay [6], 10 µg/mL.
RKKKFKFFKRFF-NH2 [SP1-13]: the MIC in assay [1] is 0.25 µg/mL; in assay [2], greater than 10 µg/mL; in assay [3], 0.5 µg/mL; in assay [4], 2.5 µg/mL; in assay [5], 0.1 µg/mL; in assay [6], less than 0.1 µg/mL.
As to RKKKFKFFKRLF-NH2 [SP1-12], the MIC in assay [1] is 0.5 µg/mL; in assay [2], greater than 10 µg/mL; in assay [3], 0.5 µg/mL; in assay [4], greater than 10 µg/mL; in assay [5], 0.1 µg/mL; in assay [6], 0.25 µg/mL.
For the substance RKKKFKIFKRLF-NH2 [SP1-14], the MIC in assay [1] was 1.0 µg/mL; in assay [2], greater than 10 µg/mL; in assay [3] it was 1.0 µg/mL; in assay [4], 1.0 µg/mL; in assay [5], less than 0.1 µg/mL; in assay [6], 0.5 µg/mL.
Take RKKKIKIIKRLI-NH2 [SP1-8]: the MIC in assay [1] was 5.0 µg/mL; in assay [2], greater than 10 µg/mL; in assay [3], 2.5 µg/mL; in assay [5] it was 0.25 µg/mL; in assay [6], 2.5 µg/mL.
As to RKKKLKIIKRLI-NH2 [SP1-7], the MIC in assay [1] was 2.5 µg/mL; in assay [2] it was greater than 10 µg/mL; in assay [3], 1.0 µg/mL; in assay [5], 0.1 µg/mL; in assay [6], 0.5 µg/mL.
